Values after ≈ are worked out from the molar mass of the structure shown.

For test [1], the system named is K. pneumoniae ATCC BAA-2146. The test is described as follows: MIC, agar plate dilution method, K. pneumoniae ATCC BAA-2146. In kind it is cell-based, Klebsiella pneumoniae. The following applies: for MIC: Klebsiella pneumoniae, ATCCBAA2146, K. pneumoniae ATCC BAA-2146, NDM-producing strain, read-out: minimal inhibitory concentration (MIC). A digest of the protocol:
(§1)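 Read-out is the lowest compound concentration inhibiting growth (MIC, μg/mL), obtained by the agar plate dilution procedure of the Japan Society of Chemotherapy.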

Another test concerns P. aeruginosa PAO1/GN315. Kind of test: MIC, agar plate dilution method, P. aeruginosa PAO1/GN315. Format: cell-based, Pseudomonas aeruginosa. The note with it: for MIC: Pseudomonas aeruginosa, read-out: minimal inhibitory concentration (MIC), P. aeruginosa PAO1/GN315, AMK-resistant. A digest of the protocol: as §1
A further test relates to E. faecium ATCC19434. The test is described as follows: MIC, agar plate dilution method, E. faecium ATCC19434. In kind it is cell-based, Enterococcus faecium. The note with it: for MIC: Enterococcus faecium, ATCC19434, E. faecium ATCC19434, read-out: minimal inhibitory concentration (MIC). The method in brief:
as §1

For a further test, the system named is S. marcescens GN6944. Kind of test: MIC, agar plate dilution method, S. marcescens GN6944. Format: cell-based, Serratia marcescens. The note with it: S. marcescens GN6944, GM-resistant; for MIC: Serratia marcescens, read-out: minimal inhibitory concentration (MIC). The method in brief:
as §1

Another test concerns P. aeruginosa MSC01035. Kind of test: MIC, agar plate dilution method, P. aeruginosa MSC01035. The note with it: P. aeruginosa MSC01035, ABK-resistant; for MIC: Pseudomonas aeruginosa, read-out: minimal inhibitory concentration (MIC). In kind it is cell-based, Pseudomonas aeruginosa. A digest of the protocol: as §1
Another test relates to S. aureus RN4220. The test is described as follows: MIC, agar plate dilution method, S. aureus RN4220. Format: cell-based, Staphylococcus aureus. The note with it: for MIC: Staphylococcus aureus, RN4220, S. aureus RN4220, Sensitive bacterium, read-out: minimal inhibitory concentration (MIC). A digest of the protocol: as §1
Test [2] has as its system A. baumannii ATCC BAA-1710. The test is described as follows: MIC, agar plate dilution method, A. baumannii ATCC BAA-1710. The following applies: for MIC: Acinetobacter baumannii, ATCCBAA1710, A. baumannii ATCC BAA-1710, MDRA, read-out: minimal inhibitory concentration (MIC). Format: cell-based, Acinetobacter baumannii. The method in brief: as §1
Another test deals with S. marcescens TH-0447. The test is described as follows: MIC, agar plate dilution method, S. marcescens TH-0447. Format: cell-based, Serratia marcescens. The note with it: for MIC: Serratia marcescens, TH0447, S. marcescens TH-0447, AMK-resistant, read-out: minimal inhibitory concentration (MIC). The method in brief: as §1
The test system of test [3] is K. pneumoniae ATCC BAA-1705. Kind of test: MIC, agar plate dilution method, K. pneumoniae ATCC BAA-1705. In kind it is cell-based, Klebsiella pneumoniae. The note with it: for MIC: Klebsiella pneumoniae, ATCCBAA1705, K. pneumoniae ATCC BAA-1705, KPC-producing strain, read-out: minimal inhibitory concentration (MIC). The method in brief:
as §1

For a further test, the system named is E. coli JM109/pMW218. Kind of test: MIC, agar plate dilution method, E. coli JM109/pMW218. Format: cell-based, Escherichia coli. The note with it: for MIC: Escherichia coli, JM109/PMW218, E. coli JM109/pMW218, Sensitive bacterium, read-out: minimal inhibitory concentration (MIC). The method in brief:
as §1

A further test relates to S. aureus MF490. Kind of test: MIC, agar plate dilution method, S. aureus MF490. The following applies: for MIC: Staphylococcus aureus, MRSA, read-out: minimal inhibitory concentration (MIC). Format: cell-based, Staphylococcus aureus. The method in brief:
as §1

Another test concerns P. aeruginosa PAO1. The test is described as follows: MIC, agar plate dilution method, P. aeruginosa PAO1. Format: cell-based, Pseudomonas aeruginosa. The following applies: for MIC: Pseudomonas aeruginosa, PAO1, P. aeruginosa PAO1, Sensitive bacterium, read-out: minimal inhibitory concentration (MIC). A digest of the protocol: as §1
A further test deals with P. aeruginosa MSC17707. The test is described as follows: MIC, agar plate dilution method, P. aeruginosa MSC17707. In kind it is cell-based, Pseudomonas aeruginosa. The note with it: for MIC: Pseudomonas aeruginosa, MSC17707, P. aeruginosa MSC17707, AMK-resistant, read-out: minimal inhibitory concentration (MIC). The method in brief: as §1
The subject of a further test is S. aureus RN4220/pMS520. Kind of test: MIC, agar plate dilution method, S. aureus RN4220/pMS520. The note with it: for MIC: Staphylococcus aureus, MRSA, read-out: minimal inhibitory concentration (MIC), S. aureus RN4220/pMS520, MRSA. In kind it is cell-based, Staphylococcus aureus. The method in brief: as §1

With `CNC1C(O[C@H]2OC(C)[C@@H](NC(=N)N)[C@H](O)C2O)O[C@H]2CC(N)[C@@H](O[C@H]3CC(O)[C@H](N)CC3N)OC2C1O` (some centres unmarked) [Compound S1-q, 4″-deamino-5,6″-dideoxy-4″-guanidinoapramycin], the MIC in [1] is 0.5 µg/mL (≈ 0.91 µM); in the test with P. aeruginosa PAO1/GN315, 8 µg/mL (≈ 14.6 µM); in the test on E. faecium ATCC19434 it was 4 µg/mL (≈ 7.28 µM); in the test with S. marcescens GN6944 it was 4 µg/mL (≈ 7.28 µM); in the test with P. aeruginosa MSC01035 it was 8 µg/mL (≈ 14.6 µM); in the test with S. aureus RN4220, 1 µg/mL (≈ 1.82 µM). The MIC in test [2] was determined as 16 µg/mL (≈ 29.1 µM); with S. marcescens TH-0447 it was 4 µg/mL (≈ 7.28 µM); in test [3], 1 µg/mL (≈ 1.82 µM); in the test with E. coli JM109/pMW218, 0.5 µg/mL (≈ 0.91 µM); in the test on S. aureus MF490, 4 µg/mL (≈ 7.28 µM); with P. aeruginosa PAO1, 4 µg/mL (≈ 7.28 µM). For the same molecule, the MIC in the test on P. aeruginosa MSC17707 was determined as 8 µg/mL (≈ 14.6 µM); in the test with S. aureus RN4220/pMS520 it was 1 µg/mL (≈ 1.82 µM).

Turning to `CN[C@@H]1[C@@H](O[C@H]2O[C@H](CO)[C@@H](NC)[C@H](O)[C@H]2O)O[C@H]2C[C@@H](N)[C@@H](O[C@H]3CC[C@H](N)C[C@@H]3N)O[C@@H]2[C@@H]1O` [Compound T2-a, 5,6-dideoxy-4″-N-methylapramycin], the “minimal inhibitory concentration (MIC)” value was 1 µg/mL (≈ 1.92 µM) in test [1] (K. pneumoniae ATCC BAA-2146, NDM-producing strain); 4 µg/mL (≈ 7.67 µM) in the test on P. aeruginosa PAO1/GN315 (P. aeruginosa PAO1/GN315, AMK-resistant); 8 µg/mL (≈ 15.3 µM) in the test with E. faecium ATCC19434 (E. faecium ATCC19434); 4 µg/mL (≈ 7.67 µM) with S. marcescens GN6944; 4 µg/mL (≈ 7.67 µM) in the test on P. aeruginosa MSC01035; 2 µg/mL (≈ 3.83 µM) in the test with S. aureus RN4220 (S. aureus RN4220, Sensitive bacterium). The “minimal inhibitory concentration (MIC)” value came to 4 µg/mL (≈ 7.67 µM) in test [2] (A. baumannii ATCC BAA-1710, MDRA); 4 µg/mL (≈ 7.67 µM) with S. marcescens TH-0447 (S. marcescens TH-0447, AMK-resistant); 1 µg/mL (≈ 1.92 µM) in test [3] (K. pneumoniae ATCC BAA-1705, KPC-producing strain); 0.5 µg/mL (≈ 0.959 µM) in the test on E. coli JM109/pMW218 (E. coli JM109/pMW218, Sensitive bacterium); 8 µg/mL (≈ 15.3 µM) with S. aureus MF490 (S. aureus MF490, MRSA); 4 µg/mL (≈ 7.67 µM) with P. aeruginosa PAO1 (P. aeruginosa PAO1, Sensitive bacterium). Also, the “minimal inhibitory concentration (MIC)” value in the test on P. aeruginosa MSC17707 (P. aeruginosa MSC17707, AMK-resistant) was 4 µg/mL (≈ 7.67 µM); in the test with S. aureus RN4220/pMS520 (S. aureus RN4220/pMS520, MRSA), 1 µg/mL (≈ 1.92 µM).

On to `CNC1C(O[C@H]2OC(CO)[C@@H](NCCN)[C@H](O)C2O)O[C@H]2CC(N)[C@@H](O[C@H]3CC[C@H](N)CC3N)OC2C1O` (some centres unmarked) [Compound T2-b, 4″-N-(2-aminoethyl)-5,6-dideoxyapramycin], for which the MIC in test [1] was determined as 2 µg/mL (≈ 3.63 µM); with P. aeruginosa PAO1/GN315 it was 8 µg/mL (≈ 14.5 µM); with E. faecium ATCC19434, 16 µg/mL (≈ 29.1 µM); in the test with S. marcescens GN6944 it was 8 µg/mL (≈ 14.5 µM); with P. aeruginosa MSC01035 it was 16 µg/mL (≈ 29.1 µM); with S. aureus RN4220, 4 µg/mL (≈ 7.26 µM). Further, the MIC in test [2] turned out to be 8 µg/mL (≈ 14.5 µM); with S. marcescens TH-0447, 8 µg/mL (≈ 14.5 µM); in [3] it was 2 µg/mL (≈ 3.63 µM); in the test on E. coli JM109/pMW218 it was 1 µg/mL (≈ 1.82 µM); with S. aureus MF490, 8 µg/mL (≈ 14.5 µM); with P. aeruginosa PAO1 it was 8 µg/mL (≈ 14.5 µM). Further, the figures for the MIC in the test with P. aeruginosa MSC17707 and with S. aureus RN4220/pMS520 were 8 µg/mL (≈ 14.5 µM) and 4 µg/mL (≈ 7.26 µM), respectively.

Take `CNC1C(O[C@H]2OC(CO)[C@@H](NCCCN)[C@H](O)C2O)O[C@H]2CC(N)[C@@H](O[C@H]3CC[C@H](N)CC3N)OC2C1O` (some centres unmarked) [Compound T2-c, 4″-N-(3-aminopropyl)-5,6-dideoxyapramycin]: the MIC in test [1] stood at 1 µg/mL (≈ 1.77 µM); with P. aeruginosa PAO1/GN315, 4 µg/mL (≈ 7.08 µM); in the test with E. faecium ATCC19434, 8 µg/mL (≈ 14.2 µM); with S. marcescens GN6944, 4 µg/mL (≈ 7.08 µM); in the test with P. aeruginosa MSC01035, 8 µg/mL (≈ 14.2 µM); in the test on S. aureus RN4220, 2 µg/mL (≈ 3.54 µM). The MIC in test [2] came to 4 µg/mL (≈ 7.08 µM); in the test with S. marcescens TH-0447 it was 8 µg/mL (≈ 14.2 µM); in [3], 1 µg/mL (≈ 1.77 µM); in the test with E. coli JM109/pMW218, 1 µg/mL (≈ 1.77 µM); with S. aureus MF490 it was 8 µg/mL (≈ 14.2 µM); with P. aeruginosa PAO1, 4 µg/mL (≈ 7.08 µM). Moreover, the MIC in the test on P. aeruginosa MSC17707 worked out at 4 µg/mL (≈ 7.08 µM); with S. aureus RN4220/pMS520, 2 µg/mL (≈ 3.54 µM).
